US12497396B2, “Nitrogen-containing heterocyclic derivatives, method therefor and application therefor as inhibitors of KRAS G12C for the treatment of cancers” (SHANGHAI HANSOH BIOMEDICAL CO., LTD., priority 2019, dated 2025)

Key:
in vitro = in vitro ADME
Procedure: (§1) Animal or human whole blood was collected, then the blood was put into a test tube containing anticoagulant, centrifuged at 3500 rpm for 10 min, and the upper layer of pale yellow plasma was collected. • 2), 10 μM of tested compound (m/M/V=C)
(§2) The compound was weighed, the stock solution was prepared with DMSO and the working solution was prepared with 100 mM phosphate buffer. • 3), 10 μM of positive control (1) Propantheline (Propantheline Mr=449.4 Da)
(§3) • 1) 285 μL of plasma and 15 μL of 10 μM compound (tested compound) were added in turn in a 96-well plate, and incubated at 37° C. • 2) 40 μL was taken out at 0, 15, 30, 60, 90, 120 min, respectively, and 160 μL of acetonitrile termination solution containing internal standard was added. • 3) After centrifugation (3500 rpm, 10 min), 50 μL of supernatant was taken out, and then diluted with 50 μL DDH2O and injected to LC-MS/MS.
(§4) • Instrument: Shimadzu LC-20 AD • Chromatographic column: phenomenex Gemiu® C18 (50*4.6 mm, 5 μM particle size); • mobile phase: A: acetonitrile, B: 0.1% formic acid solution […], 2.0-2.1 min: 90% A→5% A; flow rate: 0.8 mL/min; running time: 5.0 min; injection volume: 5 μL.
(§5) • Instrument: API4000 Liquid Chromatography-Mass Spectrometry, AB, USA; • the ion source was electrospray ionization source (ESI); • the temperature of dry gas (N2) was 500° C.; • electrospray voltage was 5500V; • the detection method was positive ion detection; • the scanning mode was selective response monitoring (MRM). • the scanning time was 0.1 s.

[1] = Plasma stability, rat plasma; type: in vitro ADME; settings: rat plasma, 37° C.
Procedure: as §1, §2, §3, §4, §5

[2] = Plasma stability, dog plasma; type: in vitro ADME; settings: dog plasma, 37° C.
Procedure: as §1, §2, §3, §4, §5

[3] = test system: human lung cancer NCI-H358 cell xenograft; assay: In vivo pharmacodynamics on human lung cancer NCI-H358 cell xenograft tumor model; set-up: species or system BALB/c nude mice
Procedure: • BALB/c nude mice, 6-8 weeks old, female, purchased from Shanghai Xipuer-Bikai Experimental Animal Co., Ltd. 6.3.2 Cell Culture and Cell Suspension Preparation • 1) MiaPaca-2 cells were taken out from the cell bank and resuscitated with DMEM medium (DMEM+10% FBS), the resuscitated cells were placed in a cell culture flask (labeled with cell type, date, name of cultured person, etc.) and cultured in a CO2 incubator (incubator temperature was 37° C., CO2 concentration was 5%) (the method of resuscitating NCI-H358 cells was the same as MiaPaca-2 cells in test embodiment 5, and the culture medium was changed to RPMI-1640 medium). • 2) Passage was conducted every three to five days, and the cells was continued to be cultured in CO2 incubator after passage. The process was repeated until the cell count meets the in vivo pharmacodynamic requirements. • 3) MiaPaca-2 cells were collected and counted by automatic cell counter, according to the counting results, the cells were re-suspended with PBS and Matrigel (ratio was 1:1) to make cell suspension (cell density was 5×10^7/mL), then placed in a ice box for use (NCI-H358 cells were re-suspended with PBS without adding Matrigel, cell density was 1×10^8/mL). 6.3.3 Sample Preparation: • 1) Solvent: solvent (0.5% CMC-Na+1% Tween 80), storage condition: 4° C.
0.5 g of CMC-Na was weighted, dissolved in ddH2O, then 1.0 mL of Tween 80 was added and the mixture was stirred to mix well, and the volume was finally set to 100 mL. • 2) Compound to be tested (10 mg/kg) was prepared:
8.42 mg of AMG510 compound was weighted, 8.260 mL of solvent was added, a uniform solution was obtained by ultrasound, vortexing and stirring.
7.81 mg of embodiment compound 165-1 was weighted, 7.654 mL of solvent was added, a uniform solution was obtained by ultrasound, vortexing and stirring.
• 1) Before inoculation, nude mice were labeled with disposable universal ear tags of rats and mice; • 2) when inoculating, the cell suspension was mixed well, 0.1-1 mL cell suspension was extracted with a 1 mL syringe, bubbles were removed, and then the syringe was put on an ice bag for later use; • 3) the nude mice was held with left hand, the right back of nude mice near the right shoulder (inoculation site) was disinfected with 75% alcohol, and inoculation was started after 30 seconds; • 4) the experimental nude mice were inoculated in turn (each mouse was inoculated with 0.1 mL of cell suspension); 6.3.4 Tumor-Bearing Mouse were Measured, Grouped, and Administered: • 1) According to the tumor growth, the tumor was measured on the 18th day after inoculation, and the tumor size was calculated. tumor volume (mm^3)=length (mm)×width (mm)×width (mm)/2 Tumor volume calculation: • 2) The tumor-bearing mice were grouped according to their body weight and tumor size using a randomized grouping method. • 3) According to the grouping results, the administration of the test drug was started (administration method: oral administration; administration dose: 10 mg/kg; administration volume: 10 mL/kg; administration frequency: once a day; administration period: 21 days; solvents: 0.5% CMC/1% Tween 80). • 4) The tumor was measured and weighed twice a week after the test drug was started to be given. • 5) After the experiment, all animals were euthanized. • 6) Data was processed with software such as Excel. […]

[4] = test system: NCI-H358 cells (KRAS G12C mutant cell line); assay: Inhibition of NCI-H358 cell proliferation (CellTiter-Glo, 72 h); type: cell-based, human; settings: Homo sapiens
Source text: (§6) As a preferred embodiment of the present disclosure, the detection method of NCI-H358 cell proliferation inhibitory activity and Mia PaCa-2 cell proliferation inhibitory activity is as follows: through cell culture, adding different concentrations of compound solutions to the cultured cells, continuing the culture for a period of time and measuring the cell proliferation; • further, the method of cell culture is: adjusting the cells to a suitable cell concentration with complete medium and spreading the cell suspension in well plates for culture; preferably, the culture conditions are 37° C., 5% CO2 incubator overnight; preferably, the cell suspension is spread in 96-well plates, 48-well plates, 24-well plates, 12-well plates or 6-well plates, more preferably 96-well plates; preferably, the suitable cell concentration is 1500-4000 cells/well, with 90 μL of cell suspension added to each well; • further, the compound solution is prepared with DMSO and may be further diluted with medium; preferably, the compound solution has a concentration gradient starting from 100 μM at 4-fold dilution, more preferably starting from 30 μM at 4-fold dilution, most preferably starting from 10 μM at 4-fold dilution; • further, the volume of the compound solution or solvent added to each well is 1-10 μL, preferably 10 μL; • further, after adding the compound solution, the conditions for continuing the culture are 37° C., 5% CO2 incubator; preferably, the culture time is 24-72 h, more preferably 72 h; • further, the method for measuring cell proliferation is MTT, CCK8, CellTiter-Glo; preferably the method is CellTiter-Glo; • further, the cell proliferation is read using a microplate reader, more preferably a BioTek Synergy H1 microplate reader.
(§7) When NCI-H358 or Mia PaCa-2 cells were cultured to the appropriate fusion level, the NCI-H358 or Mia PaCa-2 cells were collected, and the cells were adjusted to the appropriate cell concentration using a complete medium, and the cell suspension was spread in a 96-well plate, 90 μL per well, and placed in a 37° C., 5% CO2 incubator overnight; and compound solutions of different concentrations were prepared using DMSO and culture medium; and a solvent control was set, the compound solution was added to a 96-well plate, 10 μL per well, at 37° C. in a 5% CO2 incubator for 72 hours; CellTiter-Glo solution was added thereto and the mixture was mixed well by shaking, incubated for 10 min in the dark, and read by BioTek Synergy H1 microplate reader.
(§8) The luminescence signal values were used to calculate the inhibition rate, the concentration and the inhibition rate were fitted to a nonlinear regression curve using Graphpad Prism software, then the IC50 value was obtained.

human KRAS G12C protein = target: T1, human KRAS G12C protein (Homo sapiens, UniProt P01116, G12C); assay: Thermal shift: melting temperature of KRAS G12C protein; type: binding; settings: for Tm (° C.): KRAS G12C protein 5.37 μM with compound 10 μM, 1 hour incubation; for ΔTm at 10 µM: compound 10 μM, Tm minus Tm of DMSO solvent control
T1 construct: purchased Beijing SinoBiological Co., Ltd. 12259-H07E2
Procedure: A solution containing […] (pH 7.5), 1 mM DTT, 5×SYPRO Orange and 150 mM NaCl was prepared as the experimental buffer, and a final concentration of 5.37 μM human KRAS G12C protein was added thereto. […] After incubating at room temperature in the dark for 1 hour, the PCR tube was put into the PCR instrument, QuantStudio Software v1.3 was opened, and the melting temperature of KRAS G12C protein in different treatment groups was detected by melt curve function (heating from 25° C. to 95° C., 0.03° C./s). The experimental data file of PCR instrument was imported into thermal shift software, and the melting temperature (Tm) of each treatment group was obtained, and the change value of melting temperature (Δ Tm) was obtained by subtracting the Tm of DMSO solvent control group.

in vivo = settings: male, Balb/c, mouse, po, 10 mg/kg
Procedure: 5 g of Hydroxyethyl cellulose (HEC, CMC-Na, viscosity: 800-1200 Cps) was weighed, dissolved in 1000 mL of purified water, and 10 g of Tween 80 was added. The mixture was mixed well to form a clear solution.
The embodiment compounds were weighed and added into 4-mL glass bottles, respectively, 2.4 mL of the solution was added, and ultrasound was performed for 10 minutes to obtain a colorless clear solution with a concentration of 1 mg/mL.
Balb/C mice, males; PO, after overnight fasting, respectively, at a dose of 10 mg/kg, administered in a volume of 10 mL/kg.
Blood samples were collected before administration and 0.083 h, 0.25 h, 0.5 h, 1 h, 2 h, 4 h, 6 h and 8 h after administration, the blood was placed in EDTA-2K tube, centrifuged at 4° C. 6000 rpm for 6 min to separate plasma, and stored at −80° C.; food was consumed 4 hours after drug administration.

[5] = test system: Mia PaCa-2 cells (KRAS G12C mutant cell line); assay: Inhibition of Mia PaCa-2 cell proliferation (CellTiter-Glo, 72 h); type: cell-based, human; settings: Homo sapiens
Source text: as §6, §7, §8

| SMILES | Residual rate (%) 0 min [1] | Residual rate (%) 15 min [1] | Residual rate (%) 30 min [1] | Residual rate (%) 60 min [1] | Residual rate (%) 120 min [1] | Residual rate (%) 0 min [2] | Residual rate (%) 15 min [2] | Residual rate (%) 30 min [2] | Residual rate (%) 60 min [2] | Residual rate (%) 120 min [2] | IC50 [4] | Tm (° C.) (human KRAS G12C protein) | ΔTm at 10 µM (human KRAS G12C protein) | IC50 [5] | further results |
| --- | --- | --- | --- | --- | --- | --- | --- | --- | --- | --- | --- | --- | --- | --- | --- |
| C=CC(=O)N1CCN(c2nc(=O)n(-c3c(C)ccnc3C(C)C)c3nc(-c4c(O)cccc4F)c(F)cc23)[C@@H](C)C1 [AMG 510, reference compound] | 100.00% | 100.85% | 93.03% | 77.54% | 56.77% | 100.00% | 98.88% | 101.14% | 93.43% | 91.92% |  |  |  |  | Residual rate (%) 0 min (in vitro; human, 0.5 μM): 100.00%; Residual rate (%) 15 min (in vitro; human, 0.5 μM): 93.77%; Residual rate (%) 30 min (in vitro; human, 0.5 μM): 85.72%; Residual rate (%) 60 min (in vitro; human, 0.5 μM): 82.51%; Residual rate (%) 120 min (in vitro; human, 0.5 μM): 64.44%; Residual rate (%) 0 min (in vitro; mouse plasma, 37° C.): 100.00%; Residual rate (%) 15 min (in vitro; mouse plasma, 37° C.): 97.50%; Residual rate (%) 30 min (in vitro; mouse plasma, 37° C.): 82.58%; Residual rate (%) 60 min (in vitro; mouse plasma, 37° C.): 81.82%; Residual rate (%) 120 min (in vitro; mouse plasma, 37° C.): 63.23% |
| C=CC(=O)N1CCN(c2nc(=O)n(-c3c(C)ccnc3C(C)C)c3nc(-c4c(O)cccc4F)c(F)cc23)[C@@H](C)C1 [AMG-510, reference compound] |  |  |  |  |  |  |  |  |  |  |  |  |  |  | TGI (%) Day 15 ([3]; Day 15, 10 mpk oral once a day): 38.02%; tumor volume (mm^3, Mean ± SD) Day 15 ([3]; Day 15, 10 mpk oral once a day): 324 ± 204 mm^3; ΔT/ΔC(%) Day 15 ([3]; Day 15, 10 mpk oral once a day): 61.98%; tumor volume (mm^3, Mean ± SD) Day 0 ([3]; baseline Day 0, 10 mpk oral once a day): 202 ± 72 mm^3 |
| C=CC(=O)N1C[C@H](C)N(c2nc(=O)n(-c3c(SC)ccnc3C(C)C)c3nc(-c4c(O)cccc4F)c(F)cc23)C[C@H]1C [Embodiment 114, 4-((2S, 5R)-4-acryloyl-2,5-dimethylpiperazin-1-yl)-6-fluoro-7-(2-fluoro-6-hydroxyphenyl)-1-(2-isopropyl-4-(methylthio)pyridin-3-yl) pyrido [2,3-d] pyrimidin-2 (1H)-one] |  |  |  |  |  |  |  |  |  |  | 50 nM | 57.2 °C | 8.5 °C | 43 nM | AUC(0-inf) (in vivo): 1290 ng·h/mL; Cmax (in vivo): 1530 ng/mL; MRT (in vivo): 42 min; Tmax (in vivo): 15 min; half-life (in vivo): 36 min |
| C=CC(=O)N1C[C@H](C)N(c2nc(=O)n(-c3c(SC)ccnc3C(C)C)c3nc(-c4c(N)ccc(Cl)c4F)c(Cl)cc23)C[C@H]1C [Embodiment 165, 4-((2S, 5R)-4-acryloyl-2,5-dimethylpiperazin-1-yl)-7-(6-amino-3-chloro-2-fluorophenyl)-6-chloro-1-(2-isopropyl-4-(methylthio)pyridin-3-yl) pyrido [2,3-d] pyrimidin-2 (1H)-one] |  |  |  |  |  |  |  |  |  |  | 5.9 nM | 58.0 °C | 11 °C | 7.6 nM |  |
| CC[C@H](C)C(=O)O[C@H]1C[C@@H](C)C=C2C=C[C@H](C)[C@H](CC[C@@H]3C[C@@H](O)CC(=O)O3)[C@H]21 [Lovastatin, reference compound] | 100.00% | 21.15% | 1.77% | 0.36% | 0.30% | 100.00% | 95.25% | 95.45% | 75.66% | 36.25% |  |  |  |  | t1/2 [1]: 6.69 min; t1/2 [2]: 80.22 min |
